The record followed here is publication doi:10.1101/838656v1 (biorxiv, 2019).

Like-named read-outs stand apart in the source and are kept apart here.

For series [1], the target named is BRD4-BD1 (bromodomain-containing protein 4) (Homo sapiens, UniProt O60885). The experiment in a line: biochemical.
A further series can be described thus: in vitro. The following applies: human, a431 cells.
In series [2] the test system is HMGA2 (mammalian high mobility group protein AT-hook 2). The following applies: read-out: Alpha Screen IC50; DNA-binding compound; inhibitor.
The test system is the same in series [3]. The following applies: read-out: Lance Screen IC50; DNA-binding compound; inhibitor.

As usually defined, the IC50 is the point on the concentration scale where inhibition reaches its midpoint. By CC50 is commonly meant the concentration giving 50% cytotoxicity. A high value points to better tolerance by the cells. The molecule `Nc1ccc(-c2nc3ccc(-c4nc5ccc(N)cc5[nH]4)cc3[nH]2)cc1` [Ro 90-7501] came in with an IC50 in series [1] of 16.9 µM. Further, in the series “in vitro”, the CC50 was > 100 µM.

Consider `Cc1ccc(C(=O)Nc2ccc(S(=O)(=O)O)c3cc(S(=O)(=O)O)cc(S(=O)(=O)O)c23)cc1NC(=O)c1cccc(NC(=O)Nc2cccc(C(=O)Nc3cc(C(=O)Nc4ccc(S(=O)(=O)O)c5cc(S(=O)(=O)O)cc(S(=O)(=O)O)c45)ccc3C)c2)c1` [suramin], for which, in series [1], the IC50 is > 100 µM. The CC50 in the series “in vitro” is > 100 µM.

In series [1], `O=C(O)C1=CC(=C(c2ccc(O)c(C(=O)O)c2)c2ccc(O)c(C(=O)O)c2)C=CC1=O` [aurintricarboxylic acid] gave an IC50 of 5 µM. Moreover, in the series “in vitro”, the CC50 was > 100 µM.

Regarding `O=C1c2c(O)ccc(O)c2C(=O)c2c(NCCNCCO)ccc(NCCNCCO)c21` [Mitoxantrone], the values for the half-maximal inhibitory concentration (IC50) in series [1], in series [2] and in series [3] were 0.99 µM, 0.18 µM and 1.77 µM, respectively. This molecule also came in with a cytotoxic concentration (CC50) in “in vitro” of 1.65 µM.

In the case of `COc1cccc2c1C(=O)c1c(O)c3c(c(O)c1C2=O)C[C@@](O)(C(C)=O)C[C@@H]3O[C@H]1C[C@H](NCc2ccc(CN[C@@H]3C[C@@H](O[C@H]4C[C@](O)(C(C)=O)Cc5c(O)c6c(c(O)c54)C(=O)c4c(OC)cccc4C6=O)O[C@H](C)[C@@H]3O)cc2)[C@H](O)[C@H](C)O1` [WP631], the IC50 in series [1] was 2.05 µM; in series [2] it was 0.044 µM; in series [3], 0.17 µM. The molecule also showed a CC50 in the series “in vitro” of 0.17 µM.
